Entries after “also recorded” stand apart in the source; their conditions may differ. Read-outs that look alike come from different tables or passages of the source.
What was measured:
[1] = system: MDA-MB231; test: Cell proliferation, MTT assay; format: cell-based; conditions: Homo sapiens, read-out: Anti-proliferative activity EC50
[2] = system: BT549; test: Cell proliferation, MTT assay; format: cell-based; conditions: Homo sapiens, read-out: Anti-proliferative activity EC50
[3] = system: MCF-7; test: Cell proliferation, MTT assay; format: cell-based; conditions: Homo sapiens, read-out: Anti-proliferative activity EC50
[4] = system: MDA-MB157; test: Cell proliferation, MTT assay; format: cell-based; conditions: Homo sapiens, read-out: Anti-proliferative activity EC50
[5] = system: HCC70; test: Cell proliferation, MTT assay; format: cell-based; conditions: Homo sapiens, read-out: Anti-proliferative activity EC50
[6] = system: A549; test: Cell proliferation, MTT assay; format: cell-based, Human; conditions: for EC50: Homo sapiens, read-out: Anti-proliferative activity EC50
[7] = system: NB4; test: Cell proliferation, MTT assay; format: cell-based; conditions: Homo sapiens, read-out: Anti-proliferative activity EC50
[8] = system: five breast cancer cell lines, lung cancer A549 and non-MLL leukemia NB4 cells; test: Cell proliferation, MTT assay, whole panel; format: cell-based; conditions: Homo sapiens, 72 h; 3-day treatment, all seven cell lines; read-out: EC50 against all of these cells
[9] = system: MDA-MB231, BT549 and MCF-7 breast cancer cells; test: Cell proliferation, MTT assay, DOT1L+ breast cancer cells; format: cell-based, Human; conditions: Homo sapiens, 360 h
[10] = system: H3K79 methylation; test: Western blot of histone methylation in MDA-MB231; format: cell-based, Human
Procedure: (§1) Human cell lines BT549, MDA-MB231, MCF-7, MDA-MB157, HCC70, A549 and NB4 were obtained from the American Type Culture Collection (ATCC) and cultured using ATCC recommended conditions. Primary antibodies against H3K79me2, H3K27me3, H3K4me3, H3K36me2, H4K20me3, H3K9me-pan were purchased from Cell Signaling (Danvers, MA). siRNA experiments were performed by transfecting MDA-MB-231 cells with X-tremeGENE Transfection Reagent (Roche) and 10 nM siRNA (Invitrogen), according to the manufacturer's protocol.
(§2) 10^6 cells/well were incubated with increasing concentrations of a compound for 5 days and histones extracted with the EpiQuik™ Total Histone Extraction Kit (Epigentek) according to the manufacturer's protocol. Equal amounts of histones (2μg) were separated on SDS-PAGE and transferred to PVDF membranes. The blots were probed with primary antibodies, followed by anti-rabbit IgG (Thermo Scientific) secondary antibodies. For western blot analysis of MDA-MB231 xenograft tumors, tumors were harvested and frozen in liquid nitrogen. Histones were extracted and analyzed by immunoblotting as described above.

[11] = system: H3K79 methylation; test: Western blot of histone methylation in MCF-7; format: cell-based, Human; conditions: MCF-7, Western blot, in words
Procedure: as §1, §2

[12] = system: MDA-MB231 cells; test: CD44/CD24 flow cytometry; format: cell-based, Human; conditions: MDA-MB231, FACS, in words
Procedure: (§3) 5 × 10^4 cells/well were incubated with compounds for 14 days. The ALDH activity of cells was determined by using the ALDEFLUOR assay kit (StemCell Technologies) according to the manufacturer's instructions. Combinations of fluorochrome-conjugated monoclonal antibodies against human CD44-FITC and CD24-PE were obtained from BD Biosciences. Primary antibodies or the respective isotype controls (BD Biosciences) were added to the cell suspension, according to the manufacturer's recommendation, and incubated at 4°C for 20 min. Dead cells were eliminated using propidium iodide (Sigma). The labelled cells were analyzed on a FACS Calibur (BD Biosciences/Applied Biosystems).

[13] = system: MDA-MB231 cells; test: ALDEFLUOR assay; format: cell-based, Human; conditions: in words
Procedure: as §3

[14] = system: MDA-MB231; test: Transwell cell migration assay; format: cell-based, Human
Procedure: (§4) 5 × 10^4 cells/well were incubated with compounds for 14 days. For transwell migration assays, 5× 10^4 cells were plated in the top chamber with the non-coated membrane (24-well insert; pore size, […]; BD Biosciences). For invasion assays, 5× 10^4 cells were plated in the top chamber with Matrigel-coated membrane. The cells on the apical side of each insert were then scraped off after 22 h for both assays. The wells were washed with PBS, fixed with 100% methanol and stained with DAPI. Cells that had migrated to the basal side of the membrane were visualized and counted with a Nikon Eclipse TE2000-U microscope at 10×. Pictures of three random fields were obtained and the number of cells that had migrated quantified using ImageJ analysis software.

[15] = system: MDA-MB231; test: Matrigel invasion assay; format: cell-based, Human
Procedure: as §4

[16] = system: MDA-MB231 cells; test: Microarray gene set enrichment analysis; format: cell-based, Human; conditions: 1 at 5 μM, 2 at 10 μM, in words
Procedure: 10^5 cells/well were incubated with compounds for 14 days. Cells were lysed immediately in TRIzol® Reagent, frozen in liquid nitrogen, and shipped to Asuragen, Inc. (Austin, TX) for microarray experiments. RNA was isolated, amplified, and hybridized to Illumina Human HT-12 v4 arrays according to the manufacturer's protocol. Microarray data were log2 transformed and then normalized to have the same median for all the arrays. Moderate t-statistics were used to test if genes were differentially expressed between the groups of interest. Benjamini and Hochberg method was used to correct for multiple comparisons. R and Bioconductor packages were used for all the statistical analyses (http://cran.us.r-project.org/, http://www.bioconductor.org/). Gene set enrichment analysis was performed using GSEA software from Broad Institute (Boston, MA).

[17] = system: MDA-MB157 and HCC70 as well as A549 and NB4; conditions: in words
[18] = in words; cited from earlier work

EC50 ([1]; MDA-MB-231, 72 h, MDA-MB231, 3-day treatment): 45 µM
EC50 ([1]; MDA-MB-231, 360 h, MDA-MB231, 15-day treatment): 0.19 µM
EC50 ([2]; BT-549, 72 h, BT549, 3-day treatment): 29 µM
EC50 ([2]; BT-549, 360 h, BT549, 15-day treatment): 0.71 µM
EC50 ([3]; MCF7, 72 h, MCF-7, 3-day treatment): 15 µM
EC50 ([3]; MCF7, 360 h, MCF-7, 15-day treatment): 0.95 µM
EC50 ([4]; MDA-MB-157, 72 h, MDA-MB157, 3-day treatment): > 50 µM
EC50 ([4]; MDA-MB-157, 360 h, MDA-MB157, 15-day treatment): 27 µM
EC50 ([6]; 72 h, A549, 3-day treatment): 19 µM
EC50 ([6]; 360 h, A549, 15-day treatment): 20 µM
EC50 [8]: ≥ 15 µM
EC50 ([9]; 15-day treatment, MDA-MB231, BT549, MCF-7, read-out: EC50 against proliferation): 0.19 to 1.4 µM
EC50 ([9]; DOT1L+ breast cancer cells, 15-day, read-out: anti-proliferation EC50): ≥ 0.19 µM
IC50 ([10]; Homo sapiens, MDA-MB-231, read-out: IC50 of H3K79 methylation inhibition): ~0.05 µM
Structure (SMILES): CC(C)N(CCCNC(=O)Nc1ccc(C(C)(C)C)cc1)C[C@H]1O[C@@H](n2ccc3c(N)ncnc32)[C@H](O)[C@@H]1O [Compound 1, EPZ004777]
EC50 ([5]; 72 h, HCC70, 3-day treatment): 20 µM
EC50 ([5]; 360 h, HCC70, 15-day treatment): 12 µM
activity against A549 cells ([6]; in words): negligible activity
EC50 ([7]; NB-4, 72 h, NB4, 3-day treatment): 21 µM
EC50 ([7]; NB-4, 360 h, NB4, 15-day treatment): 22 µM
effect on H3K79 methylation ([10]; in words): only inhibited H3K79 methylation
effect on H3K79 methylation [11]: significantly reduced H3K79 methylation; also recorded: considerably reduced H3K79 methylation
CD44+/CD24− cell population [12]: significantly decreased
cell population expressing high levels of CD24 [12]: considerably more cells expressed higher levels of CD24; also recorded: increased cell population
ALDH+ cell population [13]: considerably reduced
inhibition of cell migration ([14]; MDA-MB231, Transwell): ~ 50%
cell migration and invasion ([14]; MDA-MB231, Transwell with and without Matrigel, in words): reduced abilities of cell migration and invasion
inhibition of Matrigel invasion [15]: ~25%
genes whose expression is low in breast CSCs (GSEA) [16]: upregulation
pro-proliferation genes in the PAM50 gene set (GSEA) [16]: downregulation
activity against DOT1L−/low breast or non-breast cancer cells [17]: inactive
pharmacokinetics [18]: poor pharmacokinetics with short plasma half-lives
